Values of other authors as cited in patent publication US20110029296A1, “Metabolic analysis apparatus and metabolic analysis method” (FUJITSU LIMITED, priority 2009, published 2011).

Molecular target: CYP2E1 (Homo sapiens, UniProt P05181)
Sequence (P05181 whole entry, species assumed): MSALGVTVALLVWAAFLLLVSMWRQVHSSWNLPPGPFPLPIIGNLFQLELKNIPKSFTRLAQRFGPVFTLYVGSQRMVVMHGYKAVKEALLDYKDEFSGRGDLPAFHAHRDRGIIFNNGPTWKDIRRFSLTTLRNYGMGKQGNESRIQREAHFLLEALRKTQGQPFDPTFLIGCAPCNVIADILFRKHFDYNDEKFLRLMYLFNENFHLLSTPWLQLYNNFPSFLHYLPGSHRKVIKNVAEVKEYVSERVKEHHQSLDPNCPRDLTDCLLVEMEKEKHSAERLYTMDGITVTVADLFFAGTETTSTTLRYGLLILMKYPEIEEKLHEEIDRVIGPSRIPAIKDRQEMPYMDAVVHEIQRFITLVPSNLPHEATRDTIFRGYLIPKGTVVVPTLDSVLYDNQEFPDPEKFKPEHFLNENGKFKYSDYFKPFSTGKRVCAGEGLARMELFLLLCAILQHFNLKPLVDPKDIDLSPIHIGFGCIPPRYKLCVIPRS

SMILES: Nc1cc2c3ccccc3ccc2c2ccccc12 [6-aminochrysene]
- metabolism by CYP2E1 (forms a complex with CYP2E1): not metabolized by CYP2E1
- effect on the metabolic reaction of CYP2E1 (inhibition by the amino group): inhibitor which inhibits the metabolic reaction of CYP2E1
